target: PIK3CA (human) (UniProt P42336); test: Cell-Based Assay; details: bt20
Sequence (P42336 whole entry, looked up): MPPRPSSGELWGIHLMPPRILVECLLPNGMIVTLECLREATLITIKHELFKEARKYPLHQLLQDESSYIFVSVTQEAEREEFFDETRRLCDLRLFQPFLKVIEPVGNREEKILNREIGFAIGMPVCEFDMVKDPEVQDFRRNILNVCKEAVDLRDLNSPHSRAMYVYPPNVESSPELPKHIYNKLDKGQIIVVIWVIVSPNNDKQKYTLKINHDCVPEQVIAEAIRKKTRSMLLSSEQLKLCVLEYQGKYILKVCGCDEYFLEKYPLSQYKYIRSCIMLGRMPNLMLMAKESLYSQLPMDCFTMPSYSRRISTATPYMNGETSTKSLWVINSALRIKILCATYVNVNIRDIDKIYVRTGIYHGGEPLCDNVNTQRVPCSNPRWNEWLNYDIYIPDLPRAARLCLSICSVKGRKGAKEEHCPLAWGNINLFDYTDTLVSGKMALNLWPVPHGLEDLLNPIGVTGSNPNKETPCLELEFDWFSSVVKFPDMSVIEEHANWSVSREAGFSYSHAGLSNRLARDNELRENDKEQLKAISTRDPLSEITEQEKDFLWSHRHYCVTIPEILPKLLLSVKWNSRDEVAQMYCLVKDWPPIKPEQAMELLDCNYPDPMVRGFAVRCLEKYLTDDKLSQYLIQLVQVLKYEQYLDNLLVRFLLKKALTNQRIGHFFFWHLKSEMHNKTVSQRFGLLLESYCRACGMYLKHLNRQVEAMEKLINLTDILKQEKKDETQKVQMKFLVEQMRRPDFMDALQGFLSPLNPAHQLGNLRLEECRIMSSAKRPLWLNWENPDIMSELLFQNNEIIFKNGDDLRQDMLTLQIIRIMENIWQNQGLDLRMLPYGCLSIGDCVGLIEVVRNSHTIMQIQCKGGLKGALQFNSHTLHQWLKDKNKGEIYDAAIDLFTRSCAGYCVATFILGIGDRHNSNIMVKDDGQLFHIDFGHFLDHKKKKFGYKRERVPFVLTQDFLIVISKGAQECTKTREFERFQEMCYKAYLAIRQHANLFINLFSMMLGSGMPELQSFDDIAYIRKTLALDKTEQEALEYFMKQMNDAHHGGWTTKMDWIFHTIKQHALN

SMILES	IC50 [nM]
C[C@H](CO)n1c(=O)n(C)c2cnc3ccc(-c4cnc5[nH]ncc5c4)nc3c21	83.8
COc1ccc(-c2ccc3ncc4c(c3n2)n([C@H](C)CO)c(=O)n4C)cn1	237
COc1cccc(-c2ccc3ncc4c(c3n2)n(C2CCN(C(=O)CO)CC2)c(=O)n4C)c1	30.4
Cn1c(=O)n(C2CCN(C(=O)CO)CC2)c2c3nc(-c4cccc5[nH]ncc45)ccc3ncc21	60.4
CNC(=O)N1CCC(n2c(=O)n(C)c3cnc4ccc(-c5cnc6ccccc6c5)nc4c32)CC1	7.34
Cn1c(=O)n([C@H]2CC[C@H](O)CC2)c2c3nc(-c4cc[nH]n4)ccc3ncc21	264
Cn1c(=O)n(C2CCNCC2)c2c3nc(-c4cnn(CCO)c4)ccc3ncc21	3210
CN(C)c1ccc(-c2ccc3ncc4c(c3n2)n(C2CCN(C(N)=O)CC2)c(=O)n4C)cn1	35.8
CN(C)c1ccc(-c2ccc3ncc4c(c3n2)n([C@H]2CC[C@H](OCCO)CC2)c(=O)n4C)cn1	11.6
COc1ncc(-c2ccc3ncc4c(c3n2)n(-c2ccc(C(C)(C)C#N)cc2)c(=O)n4C)cn1	27.2
COc1ncc(-c2ccc3ncc4c(c3n2)n(C2CCN(C)CC2)c(=O)n4C)cn1	159
Cc1ccc(-c2ccc3ncc4c(c3n2)n(C2CCN(C(=O)CN)CC2)c(=O)n4C)cn1	68.9
Cn1c(=O)n(C2CCN(C(=O)C(C)(C)N)CC2)c2c3nc(-c4cnc5ccccc5c4)ccc3ncc21	11.7
COc1ncc(-c2ccc3ncc4c(c3n2)n(-c2ccc(C(C)(C)C#N)cc2)c(=O)n4C)cc1F	90.7
COc1cccc(-c2ccc3ncc4c(c3n2)n(C2CCN(C(=O)[C@H](C)O)CC2)c(=O)n4C)c1	34.4
Cn1cc(-c2ccc3ncc4c(c3n2)n(C2CCN(CC(F)(F)F)CC2)c(=O)n4C)cn1	195
CN(C)c1ccc(-c2ccc3ncc4c(c3n2)n(C2CCN(C(=O)C(C)(C)O)CC2)c(=O)n4C)cn1	6.69
COc1ncc(-c2ccc3ncc4c(c3n2)n([C@H]2CC[C@H](OCCO)CC2)c(=O)n4C)cn1	26.3
COc1ncc(-c2ccc3ncc4c(c3n2)n(C2CCOCC2)c(=O)n4C)cn1	98.9
COc1cccc(-c2ccc3ncc4c(c3n2)n(C2CCN(C(C)=O)CC2)c(=O)n4C)c1	57.7
Cn1c(=O)n([C@H]2CC[C@H](O)CC2)c2c3nc(-c4cccc5[nH]ccc45)ccc3ncc21	9.61
CN(C)c1ccc(-c2ccc3ncc4[nH]c(=O)n(-c5ccc(C(C)(C)C#N)cc5)c4c3n2)cn1	67.6

SMILES	IC50 [nM]
CN(C)CC(=O)N1CCC(n2c(=O)n(C)c3cnc4ccc(-c5cnc6ccccc6c5)nc4c32)CC1	18
CN(C)c1ccc(-c2ccc3ncc4c(c3n2)n([C@H]2CC[C@H](O)CC2)c(=O)n4C)cn1	5.26
Cc1ccc(-c2ccc3ncc4c(c3n2)n(C2CCOCC2)c(=O)n4C)cn1	27.3
Cn1cc(-c2ccc3ncc4c(c3n2)n(C2CCOCC2)c(=O)n4C)cn1	71.8
Cc1ccc(-c2ccc3ncc4c(c3n2)n(C2CCN(c3ncccn3)CC2)c(=O)n4C)cn1	41.4
CN(C)C(=O)CN1CCC(n2c(=O)n(C)c3cnc4ccc(-c5cnn(C)c5)nc4c32)CC1	248
COCCN1CCC(n2c(=O)n(C)c3cnc4ccc(-c5ccc(N(C)C)nc5)nc4c32)CC1	31.8
COc1ncc(-c2ccc3ncc4c(c3n2)n(C2CCN(C(=O)CN)CC2)c(=O)n4C)cn1	184
C[C@H](O)C(=O)N1CCC(n2c(=O)n(C)c3cnc4ccc(-c5ccnc6[nH]ncc56)nc4c32)CC1	218
COc1ccc(-c2ccc3ncc4c(c3n2)n(C2CCN(C(=O)CN(C)C)CC2)c(=O)n4C)cn1	14.4
Cc1ccc(-c2ccc3ncc4c(c3n2)n(C2CCNCC2)c(=O)n4C)cn1	101
COc1ncc(-c2ccc3ncc4c(c3n2)n(C2CCN(CC(N)=O)CC2)c(=O)n4C)cn1	90.3
COc1ncc(-c2ccc3ncc4c(c3n2)n(C2CCN(C(=O)[C@H](C)O)CC2)c(=O)n4C)cn1	34.2
Cc1ccc(-c2ccc3ncc4c(c3n2)n(-c2ccc(C(C)(C)C#N)cc2)c(=O)n4C)cn1	24.4
COc1ncc(-c2ccc3ncc4[nH]c(=O)n(-c5ccc(C(C)(C)C#N)cc5)c4c3n2)cn1	43.9
COCC(=O)N1CCC(n2c(=O)n(C)c3cnc4ccc(-c5cnc6[nH]ncc6c5)nc4c32)CC1	15.3
Cn1c(=O)n([C@H]2CC[C@H](O)CC2)c2c3nc(-c4ccc5[nH]ncc5c4)ccc3ncc21	20.5
COc1ccc(-c2ccc3ncc4c(c3n2)n(C2CCOCC2)c(=O)n4C)cn1	18.5
N[C@H]1CC[C@H](n2c(=O)[nH]c3cnc4ccc(-c5cnc6ccccc6c5)nc4c32)CC1	402
CC(=O)N1CCC(n2c(=O)n(C)c3cnc4ccc(-c5ccc(S(C)(=O)=O)cc5)nc4c32)CC1	2580
CCN1CCC(n2c(=O)n(C)c3cnc4ccc(-c5cnc6ccccc6c5)nc4c32)CC1	11.7
CN(C)c1ccc(-c2ccc3ncc4c(c3n2)n(C2CCOCC2)c(=O)n4C)cn1	29

SMILES	IC50 [nM]
Cn1c(=O)n(C2CCNCC2)c2c3nc(-c4cnc(N)nc4)ccc3ncc21	137
CN(C)c1ccc(-c2ccc3ncc4c(c3n2)n(-c2ccc(C(C)(C)C#N)cc2)c(=O)n4C)cn1	30.9
COc1ccc(-c2ccc3ncc4c(c3n2)n(CCN2CCNCC2)c(=O)n4C)cn1	344
CNC(=O)Nc1ccc(-c2ccc3ncc4c(c3n2)n(C2CCN(C(=O)[C@H](C)O)CC2)c(=O)n4C)cc1	81.5
CN(C)CC(=O)N1CCC(n2c(=O)n(C)c3cnc4ccc(-c5ccc(N(C)C)nc5)nc4c32)CC1	15.3
COc1ccc(-c2ccc3ncc4[nH]c(=O)n(-c5ccc(C(C)(C)C#N)cc5)c4c3n2)cn1	11.5
Cc1ccc(-c2ccc3ncc4c(c3n2)n(C2CCN(CC(N)=O)CC2)c(=O)n4C)cn1	18.7
CCOC(=O)N1CCC(n2c(=O)n(C)c3cnc4ccc(-c5cnc6ccccc6c5)nc4c32)CC1	20.4
CN(C)c1ccc(-c2ccc3ncc4c(c3n2)n(C2CCN(C(=O)CO)CC2)c(=O)n4C)cn1	6.23
COc1ncc(-c2ccc3ncc4[nH]c(=O)n(-c5ccc(C(C)(C)C#N)cc5)c4c3n2)cc1F	197
Cn1c(=O)n([C@H]2CC[C@H](N)CC2)c2c3nc(-c4cnc5ccccc5c4)ccc3ncc21	46.4
CCNC(=O)Nc1ccc(-c2ccc3ncc4c(c3n2)n(C2CCN(C(=O)OC(C)(C)C)CC2)c(=O)n4C)cc1	39.9
COc1ncc(-c2ccc3ncc4c(c3n2)n(C2CCN(CC(=O)N(C)C)CC2)c(=O)n4C)cn1	37
CN1CCC(n2c(=O)n(C)c3cnc4ccc(-c5cnc6[nH]ncc6c5)nc4c32)CC1	21.8
Cn1c(=O)n([C@H]2CC[C@H](O)CC2)c2c3nc(-c4cn[nH]c4)ccc3ncc21	19.7
C[C@H](CO)n1c(=O)n(C)c2cnc3ccc(-c4cnc(N)nc4)nc3c21	331
COc1ccc(-c2ccc3ncc4c(c3n2)n(C2CCN(C(C)C)CC2)c(=O)n4C)cn1	55.1
CC(=O)N1CCC(n2c(=O)n(C)c3cnc4ccc(-c5cnc6ccccc6c5)nc4c32)CC1	4.59
Cn1c(=O)n(C2CCN(CC(F)(F)F)CC2)c2c3nc(-c4cnc5ccccc5c4)ccc3ncc21	14.8
COc1ncc(-c2ccc3ncc4c(c3n2)n(C2CCN(C(=O)CN(C)C)CC2)c(=O)n4C)cn1	175
Cn1c(=O)n(C2CCN(C(=O)C(C)(C)O)CC2)c2c3nc(-c4cnc5ccccc5c4)ccc3ncc21	28
COc1ncc(-c2ccc3ncc4c(c3n2)n([C@H]2CC[C@H](C(N)=O)CC2)c(=O)n4C)cn1	45.6
